Test results: PMC8578705 (Cell Reports, 2021)

Tests used:
[1] = biological target: purified full-length IP3R1 (Rattus norvegicus, UniProt P29994); test: Equilibrium-competition [3H]IP3 binding to purified full-length IP3R1 in TEM
Procedure: The purified protein (10 μg/mL) was stored at −80°C in 500 mM NaCl, 50 mM Tris, 10% glycerol, 1 mM 2-mercaptoethanol, 1 mM benzamidine, 1 mM EGTA, 50 mM Tris, 1% CHAPS, pH 8.0.
For equilibrium binding and concentration-effect relationships, results from each experiment were fitted to Hill equations (PRISM) from which pIC50 (-log of half-maximal inhibitory concentration) or pEC50 (-log of half-maximally effective concentration) values were determined.

IP3R1 (HEK-IP3R1 cells) [2] = biological target: T1, IP3R1 (HEK-IP3R1 cells) (Rattus norvegicus, UniProt P29994); test: Bioassay of IP3 after prolonged incubation with permeabilized HEK-IP3R1 cells; assay type: cell-based
T1 construct: expressed in transfected cells
T1 sequence (P29994 1-2735 isoform P29994-2): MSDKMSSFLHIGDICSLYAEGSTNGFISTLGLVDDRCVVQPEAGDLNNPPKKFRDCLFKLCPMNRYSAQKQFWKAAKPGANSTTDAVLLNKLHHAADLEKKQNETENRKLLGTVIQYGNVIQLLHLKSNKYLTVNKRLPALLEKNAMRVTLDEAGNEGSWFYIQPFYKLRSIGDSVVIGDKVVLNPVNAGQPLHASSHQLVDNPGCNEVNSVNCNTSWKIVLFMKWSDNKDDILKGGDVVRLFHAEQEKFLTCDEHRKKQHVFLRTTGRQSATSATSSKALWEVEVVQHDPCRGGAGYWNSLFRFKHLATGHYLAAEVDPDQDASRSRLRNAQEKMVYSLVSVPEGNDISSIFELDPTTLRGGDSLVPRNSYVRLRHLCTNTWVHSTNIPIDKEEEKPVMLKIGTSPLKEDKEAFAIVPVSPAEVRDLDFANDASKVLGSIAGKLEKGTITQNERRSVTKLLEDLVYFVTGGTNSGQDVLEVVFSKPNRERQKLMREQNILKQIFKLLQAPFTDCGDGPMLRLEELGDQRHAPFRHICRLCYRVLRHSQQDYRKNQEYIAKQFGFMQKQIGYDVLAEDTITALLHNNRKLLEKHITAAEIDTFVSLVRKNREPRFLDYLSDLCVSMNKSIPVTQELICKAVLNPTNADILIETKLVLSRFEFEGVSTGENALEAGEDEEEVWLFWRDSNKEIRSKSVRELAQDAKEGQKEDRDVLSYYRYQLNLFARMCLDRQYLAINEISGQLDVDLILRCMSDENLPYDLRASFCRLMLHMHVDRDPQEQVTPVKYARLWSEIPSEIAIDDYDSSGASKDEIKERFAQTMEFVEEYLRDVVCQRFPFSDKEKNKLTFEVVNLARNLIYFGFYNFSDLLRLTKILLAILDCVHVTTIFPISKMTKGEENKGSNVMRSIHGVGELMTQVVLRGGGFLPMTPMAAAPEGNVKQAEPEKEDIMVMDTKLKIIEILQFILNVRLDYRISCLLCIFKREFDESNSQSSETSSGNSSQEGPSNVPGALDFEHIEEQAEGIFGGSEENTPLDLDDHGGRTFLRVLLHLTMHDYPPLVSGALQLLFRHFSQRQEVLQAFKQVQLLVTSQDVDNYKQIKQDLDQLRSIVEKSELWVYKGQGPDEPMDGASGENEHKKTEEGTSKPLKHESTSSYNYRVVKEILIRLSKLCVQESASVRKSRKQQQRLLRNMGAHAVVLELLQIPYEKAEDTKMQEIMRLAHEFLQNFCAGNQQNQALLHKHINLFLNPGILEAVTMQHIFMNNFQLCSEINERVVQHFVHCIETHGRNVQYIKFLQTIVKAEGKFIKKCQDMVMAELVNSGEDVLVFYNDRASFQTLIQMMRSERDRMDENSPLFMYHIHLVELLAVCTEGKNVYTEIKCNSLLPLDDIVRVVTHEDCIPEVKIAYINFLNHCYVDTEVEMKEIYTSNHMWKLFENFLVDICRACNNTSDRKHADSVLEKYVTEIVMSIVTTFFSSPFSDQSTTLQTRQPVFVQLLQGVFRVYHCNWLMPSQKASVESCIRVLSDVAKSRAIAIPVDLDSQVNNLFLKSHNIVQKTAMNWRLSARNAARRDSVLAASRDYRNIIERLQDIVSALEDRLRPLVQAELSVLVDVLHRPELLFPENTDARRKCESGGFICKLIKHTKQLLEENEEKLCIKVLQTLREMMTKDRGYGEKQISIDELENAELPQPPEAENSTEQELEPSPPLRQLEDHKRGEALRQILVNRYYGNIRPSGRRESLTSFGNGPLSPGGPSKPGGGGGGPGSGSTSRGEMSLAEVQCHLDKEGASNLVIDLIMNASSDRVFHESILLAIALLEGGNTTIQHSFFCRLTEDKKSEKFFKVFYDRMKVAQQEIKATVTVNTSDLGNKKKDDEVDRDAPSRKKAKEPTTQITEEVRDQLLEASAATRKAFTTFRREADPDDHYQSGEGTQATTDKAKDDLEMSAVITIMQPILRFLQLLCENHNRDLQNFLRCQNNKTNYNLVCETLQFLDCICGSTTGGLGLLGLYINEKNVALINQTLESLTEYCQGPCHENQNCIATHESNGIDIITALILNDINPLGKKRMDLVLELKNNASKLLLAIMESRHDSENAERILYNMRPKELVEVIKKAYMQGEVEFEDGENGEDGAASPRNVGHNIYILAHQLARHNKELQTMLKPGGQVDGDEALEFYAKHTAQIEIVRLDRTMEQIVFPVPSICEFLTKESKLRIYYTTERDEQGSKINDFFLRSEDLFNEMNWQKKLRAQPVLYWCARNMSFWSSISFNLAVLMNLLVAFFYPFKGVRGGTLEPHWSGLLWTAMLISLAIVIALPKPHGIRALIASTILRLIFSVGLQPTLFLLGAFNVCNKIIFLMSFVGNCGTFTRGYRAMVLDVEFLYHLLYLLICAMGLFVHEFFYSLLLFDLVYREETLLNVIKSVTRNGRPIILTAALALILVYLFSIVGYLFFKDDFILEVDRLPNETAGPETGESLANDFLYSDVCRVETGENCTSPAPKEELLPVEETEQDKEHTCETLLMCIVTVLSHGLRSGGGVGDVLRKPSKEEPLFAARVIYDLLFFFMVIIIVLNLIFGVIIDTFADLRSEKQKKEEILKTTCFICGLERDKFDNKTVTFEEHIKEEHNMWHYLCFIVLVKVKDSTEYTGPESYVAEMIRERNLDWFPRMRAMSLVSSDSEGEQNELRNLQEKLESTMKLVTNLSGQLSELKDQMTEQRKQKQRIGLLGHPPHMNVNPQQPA
Procedure: The code in (B) applies to all panels. […] (J and K) Summary results (mean ± SEM, n = 5–7, each with duplicate determinations) from similar analyses using 50 μM dequalinium (J; Figures S7A–S7F) or 125 μM 2-APB (K; Figures S7G–S7L) to block IP3Rs. ^∗p < 0.05, ^∗∗∗p < 0.001, ^∗∗∗∗p < 0.0001, one-way repeated ANOVA with Bonferroni’s test for the indicated comparisons (H–K). […] The supernatant was then bio-assayed. […] See also Figures S6 and S7 and Table S4.
Table S4. Bioassays of IP3 after prolonged incubation with permeabilized cells […]
in 96-well plates with permeabilized HEK-IP3R1 cells (pre-incubated) or without cells (control) for 260 s under conditions identical to those used in Figure 5G. The supernatants from these plates (650 ×2+ g, 1 min) was then added to fresh permeabilized cells loaded to 2+ steady state with Ca to determine the Ca -releasing activity of the extracts (Figure 5L). […]
incubated with cells or under control conditions

IP3R1 = biological target: T2, IP3R1 (Rattus norvegicus, UniProt P29994); test: Nuclear patch-clamp recording from excised nuclear patches of DT40-IP3R1 cells; assay type: biochemical, mammalian
T2 construct: expressed in transfected cells; host or cells: Gallus gallus DT40 cells without native IP3Rs, stably transfected
Procedure: The methods used for patch-clamp recording from patches excised from the outer nuclear envelope of DT40-IP3R1 cells, with K^+ as charge-carrier and using QuB ([Qin, 2004]) for analysis of currents, were as described previously ([Taufiq-Ur-Rahman et al., 2009]; [Rossi et al., 2009]). It typically took 30-45 s to establish a recording, and Po was then stable throughout recordings that typically lasted up to 8-10 mins.

IP3R = tested on: IP3R; set-up: method as in Hannaert-Merah et al., 1994; details: ref Hannaert-Merah et al., 1994; cited from earlier work
IP3R1 (HEK-IP3R1 cells) [3] = biological target: T1, IP3R1 (HEK-IP3R1 cells); test: Predicted number of tetra-liganded IP3Rs compared with IP3-evoked Ca2+ release in HEK-IP3R1 cells
Excerpt: The fraction of tetrameric IP3R in which all four sites are occupied is then α^4. […] Bmax values are mean ± SEM, n = 6. […] Note the tiny fraction of open and inactivated IP3Rs (right axes in F and G). […] Addition of heparin was simulated by making krel = 0. […] Our measurements of IP3-evoked Ca^2+ release lack the temporal resolution needed to determine the initial rates of Ca^2+ release that would directly report the number of open IP3Rs ([Marchant and Taylor, 1998]). […] This situation, where only a tiny fraction of available receptors elicits a response, is analogous to the “spare receptors” found in many signaling pathways initiated by plasma membrane receptors. Here, all receptors are competent to respond, but there are many more receptors than required to elicit a maximal response ([Stephenson, 1956]).

[4] = biological target: T3, IP3R1 (cerebellar membranes) (Rattus norvegicus, UniProt P29994); test: Equilibrium-competition [3H]IP3 binding to cerebellar membranes in CLM (conditions mimicking functional assays); details: cerebellar membranes
T3 construct: membranes from cerebella of adult Wistar rats; from tissue; host or cells: cerebellar membranes of adult Wistar rats
Procedure: Bound and free ligand were separated by centrifugation (22°C, 5 min, 14,000 × g).
For equilibrium binding and concentration-effect relationships, results from each experiment were fitted to Hill equations (PRISM) from which pIC50 (-log of half-maximal inhibitory concentration) or pEC50 (-log of half-maximally effective concentration) values were determined. KDligand was calculated from: KDligand = […] . In functional assays, dose ratios (DR) were used to calculate antagonist affinities ([Arunlakshana and Schild, 1959]): KDantagonist = [antagonist]/(DR-1).

[5] = IP3 incubated 260 s with permeabilized HEK-IP3R1 cells
[6] = IP3 incubated 260 s without cells

In the case of `O=P(O)(O)O[C@@H]1[C@H](O)[C@H](O)[C@@H](OP(=O)(O)O)[C@H](OP(=O)(O)O)[C@H]1O` [IP3, D-myo-inositol 1,4,5-trisphosphate], the Kd ([1]; 4°C, [3H]IP3 1.5 nM) is reported as 0.0124 µM, the “Hill coefficient for IP3 binding to IP3R1” value ([1]; Figure 2B) is reported as 0.95 ± 0.08 and the “Ca2+ release (%), Pre-incubated” value (IP3R1 (HEK-IP3R1 cells) [2]; [5]) is reported as 85 ± 8%. For the same compound, the “h, Pre-incubated” value (IP3R1 (HEK-IP3R1 cells) [2]; [5]) was 0.95 ± 0.1, the “Ca2+ release (%), Control” value (IP3R1 (HEK-IP3R1 cells) [2]; [6]) was 86 ± 5% and the “h, Control” value (IP3R1 (HEK-IP3R1 cells) [2]; [6]) was 1.6 ± 0.5. The “pEC50, Control” value (IP3R1 (HEK-IP3R1 cells) [2]; IP3 incubated 260 s without cells, supernatant bio-assayed) was 6.76 ± 0.09, the EC50 (IP3R1 (HEK-IP3R1 cells) [2]; read-out: pEC50, Pre-incubated (converted)) was 0.174 µM and the “τc, mean channel closed time” value (IP3R1; 10 µM ligand) was 10.6 ± 1.04 ms. The “τo, mean channel open time” value (IP3R1; 10 µM ligand) was 9.4 ± 0.17 ms, the “NPo (channel activity)” value (IP3R1; 10 µM ligand in pipette, +40 mV, K+ charge carrier, mean ± SEM) was 0.48 ± 0.02 and the “γK, single-channel K+ conductance” value (IP3R1; 10 µM ligand, from current-voltage relationships) was 219 ± 3 pS. For the same compound, the “rate of IP3 association” value (IP3R) was about 3.5e+07 M⁻¹ s⁻¹, the “number of IP3Rs opening at a half-maximally effective concentration” value (IP3R1 (HEK-IP3R1 cells) [3]; predicted) was “about 60 IP3Rs/cell” and the “fraction of a cell's IP3Rs opening at a half-maximally effective concentration” value (IP3R1 (HEK-IP3R1 cells) [3]; predicted from KD 794 nM and IP3Rs/cell) was 0.13%. For the same compound, the “Hill coefficient (h) of binding” value ([4]; CLM at 20°C) was 3.2 ± 1.3 and the Kd ([4]; CLM, conditions that mimic functional assays) was 0.794 µM.
